Experimental data as given in US10208033B2, “β-carboline, dihydro-β-carboline and tetrahydro-β-carboline alkaloid derivatives and preparation methods same and use in aspects of preventing and treating plant viruses, fungicides and insecticides” (NANKAI UNIVERSITY, priority 2013, dated 2019).
Like-named read-outs stand apart in the source and are kept apart here.

Key:
[1] = test system: Colletotrichum orbiculare; assay: Fungicidal (bactericidal) activity in vitro, PDA colony diameter; assay type: cell-based; conditions: 50 mg/kg
[2] = test system: tobacco mosaic virus (TMV); assay: Anti-TMV in vivo therapeutic effect; design: species or system tobacco mosaic virus (host Nicotiana tabacum L.cv.Xanthi NN)
Cercospora arachidicola = assay: Fungicidal (bactericidal) activity in vitro, PDA colony diameter; assay type: cell-based; conditions: 50 mg/kg
Fusarium graminearumt = assay: microbe, parasite or virus in culture; assay type: cell-based; conditions: 50 mg/kg
mosquito larvae = assay: whole plant or invertebrate
Procedure, shortened: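 Compound dissolved in acetone (or other solvent) to a 1000 ppm stock and diluted in water to 5 ppm. Ten Culex pipiens pallens larvae at the start of the fourth instar, laboratory-reared, added per beaker; solvent-only aqueous control.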

[3] = test system: tobacco mosaic virus (TMV); assay: Anti-TMV in vivo inactivation; design: species or system tobacco mosaic virus (host Nicotiana tabacum L.cv.Xanthi NN)
[4] = test system: tobacco mosaic virus (TMV); assay: Anti-TMV in vivo protective effect; design: species or system tobacco mosaic virus (host Nicotiana tabacum L.cv.Xanthi NN)
Sclerotinia scleotiorum = assay: Fungicidal (bactericidal) activity in vitro, PDA colony diameter; assay type: cell-based; conditions: 50 mg/kg
cotton bollworms = assay: whole plant or invertebrate
Procedure: Experimental method of cotton bollworms: feed and drug mixing method: measure 3 mL of prepared solution and add it to about 27 g of newly prepared feed, thereby obtaining needed concentration through dilution by 10 times.

cucumber fusarium wilt = assay: Fungicidal (bactericidal) activity in vitro, PDA colony diameter; assay type: cell-based; conditions: 50 mg/kg
armyworms = assay type: in vivo; conditions: concentration 600 mg/kg
Bipolaria maydis = assay: organism not typed; assay type: cell-based; conditions: 50 mg/kg
[5] = test system: tobacco mosaic virus (TMV); assay: Anti-TMV in vitro effect (half-leaf soaking); assay type: cell-based, tobacco mosaic virus (host Nicotiana tabacum L.cv.Xanthi NN)
Fusarium fujikuroi = assay: Fungicidal (bactericidal) activity in vitro, PDA colony diameter; assay type: cell-based; conditions: 50 mg/kg
Rhizoctonia solani = assay: as above; assay type: cell-based; conditions: 50 mg/kg
Botrytis cinerea = assay: as above; assay type: cell-based; conditions: 50 mg/kg
Alternaria solani = assay: as above; assay type: cell-based; conditions: 50 mg/kg
Macrophoma kawatsukai = assay: as above; assay type: cell-based; conditions: 50 mg/kg
potato late blight = assay: microbe, parasite or virus in culture; assay type: cell-based
Rhizoctonia cereali = assay: Fungicidal (bactericidal) activity in vitro, PDA colony diameter; assay type: cell-based; conditions: 50 mg/kg
Phytophthora capsici = assay: as above; assay type: cell-based; conditions: 50 mg/kg

SMILES	Bactericidal activity (%) Colletotrichum orbiculare [1]	Relative inhibition rate (%) In vivo therapy ([2]; treatment dose 100 μg/mL)	Relative inhibition rate (%) In vivo therapy ([2]; treatment dose 500 μg/mL)	Bactericidal activity (%) Cercospora arachidicola (Cercospora arachidicola)	Bactericidal activity (%) Fusarium graminearumt (Fusarium graminearumt)	Relative inhibition rate (%) In vivo inactivation ([3]; treatment dose 100 μg/mL)	Relative inhibition rate (%) In vivo inactivation ([3]; treatment dose 500 μg/mL)	Relative inhibition rate (%) In vivo protection ([4]; treatment dose 100 μg/mL)	Bactericidal activity (%) Sclerotinia scleotiorum (Sclerotinia scleotiorum)	Bactericidal activity (%) Cucumber fusarium wilt (cucumber fusarium wilt)	Armyworm Mortality (%) (armyworms)	Bactericidal activity (%) Bipolaria maydis (Bipolaria maydis)	Relative inhibition rate (%) In vitro activity ([5]; treatment dose 100 μg/mL)	Relative inhibition rate (%) In vitro activity ([5]; treatment dose 500 μg/mL)	Bactericidal activity (%) Fusarium fujikuroi (Fusarium fujikuroi)	Bactericidal activity (%) Rhizoctonia solani (Rhizoctonia solani)	Bactericidal activity (%) Botrytis cinerea (Botrytis cinerea)	Bactericidal activity (%) Alternaria solani (Alternaria solani)	Bactericidal activity (%) Macrophoma kawatsukai (Macrophoma kawatsukai)	Bactericidal activity (%) potato late blight (potato late blight)	further results
CCCCCCCC=NNC(=O)[C@@H]1Cc2c([nH]c3ccccc23)[C@H](C)N1 [Ic-24, (1S, 3S)—N′-octadien-1-methyl-2,3,4,9-tetrahydropyridino [3,4-b] indol-3-formylhydrazine]	32.0%	31.7%	70.9%	36.4%	61.5%	32.8%	73.4%	27.3%	46.2%	9.1%	45%	36.0%	23.2%	61.3%	35.3%	22.2%	44.4%	19.0%	24.2%	17.4%	Mosquito larvae Mortality (%) (mosquito larvae; concentration 5 mg/kg, 24 h): 10%; Mosquito larvae Mortality (%) (mosquito larvae; concentration 10 mg/kg, 24 h): 100%; Corn borer Mortality (%) (corn borers; concentration 600 mg/kg): 50%; Relative inhibition rate (%) In vivo protection ([4]; treatment dose 500 μg/mL): 59.6%; Cotton bollworm Mortality (%) (cotton bollworms; concentration 600 mg/kg): 20%; Bactericidal activity (%) Rhizoctonia cereali (Rhizoctonia cereali): 29.7%; Bactericidal activity (%) Phytophthora capsici (Phytophthora capsici): 18.2%
Cc1nccc2c1[nH]c1cc(OC(=O)N(C)C)ccc12 [Ia-6, dimethylcarbamate (1-methylpyridino [3,4-b]indol-7)-ester]	35.7%	0%	15.6%	53.9%	38.1%	0%	12%	0%	7.8%	23.1%	45%	27.3%	0%	12.6%	21.4%	46.1%	12.1%	15.8%	26.2%	9.1%	Mosquito larvae Mortality (%) (mosquito larvae; concentration 5 mg/kg, 24 h): 20%; Mosquito larvae Mortality (%) (mosquito larvae; concentration 10 mg/kg, 24 h): 100%; Corn borer Mortality (%) (corn borers; concentration 600 mg/kg): 35%; Relative inhibition rate (%) In vivo protection ([4]; treatment dose 500 μg/mL): 18.7%; Cotton bollworm Mortality (%) (cotton bollworms; concentration 600 mg/kg): 20%; Bactericidal activity (%) Rhizoctonia cereali (Rhizoctonia cereali): 36.8%; Bactericidal activity (%) Phytophthora capsici (Phytophthora capsici): 9.4%
C[C@@H]1N[C@H](C(=O)NN=Cc2ccncc2)Cc2c1[nH]c1ccccc21 [Ic-15, (1S, 3S)—N′-(pyridine-4-methylene)-1-methyl-2,3,4,9-tetrahydropyridino [3,4-b] indol-3-formylhydrazine]	29.6%	12.9%	39.6%	35.3%	27.6%	8.8%	43.4%	0%	64.7%	23.1%	15%	28.0%	0%	36.6%	21.4%	23.7%	36.4%	15.0%	52.8%	24.0%	Mosquito larvae Mortality (%) (mosquito larvae; in vivo): 30%; Corn borer Mortality (%) (corn borers; in vivo): 20%; Relative inhibition rate (%) In vivo protection ([4]; treatment dose 500 μg/mL): 37.5%; Cotton bollworm Mortality (%) (cotton bollworms; in vivo): 15%; Bactericidal activity (%) Rhizoctonia cereali (Rhizoctonia cereali): 66.7%; Bactericidal activity (%) Phytophthora capsici (Phytophthora capsici): 28.9%
C[C@@H]1N[C@H](C(=O)NN=C2CCCCC2)Cc2c1[nH]c1ccccc21 [Ic-29, (1S, 3S)—N′-cyclohexylidene-1-methyl-2,3,4,9-tetrahydropyridino [3,4-b] indol-3-formylhydrazine]	32.0%	10.9%	41.9%	18.2%	46.2%	12.8%	33%	14.3%	7.7%	0.0%	20%	32.0%	8.6%	43.4%	29.4%	15.3%	52.8%	19.0%	9.1%	26.1%	Mosquito larvae Mortality (%) (mosquito larvae; concentration 10 mg/kg, 24 h): 45%; Corn borer Mortality (%) (corn borers; concentration 600 mg/kg): 15%; Relative inhibition rate (%) In vivo protection ([4]; in vivo): 46.2%; Cotton bollworm Mortality (%) (cotton bollworms; concentration 600 mg/kg): 25%; Bactericidal activity (%) Rhizoctonia cereali (Rhizoctonia cereali): 48.6%; Bactericidal activity (%) Phytophthora capsici (Phytophthora capsici): 12.1%
C[C@@H]1N[C@H](C(=O)NNC(=O)c2ccncc2)Cc2c1[nH]c1ccccc21 [Id-3, (1S, 3S)—N′-isonicotinoyl-1-methyl-2,3,4,9-tetrahydropyridino [3,4-b] indol-3-formylhydrazine]	36.0%	11.6%	45%	27.3%	53.8%	17.9%	45.3%	14.2%	3.8%	13.6%	25%	16.0%	6.4%	39.2%	29.4%	15.3%	55.6%	14.3%	39.4%	26.1%	Mosquito larvae Mortality (%) (mosquito larvae; concentration 10 mg/kg, 24 h): 50%; Corn borer Mortality (%) (corn borers; concentration 600 mg/kg): 25%; Relative inhibition rate (%) In vivo protection ([4]; treatment dose 500 μg/mL): 42.1%; Cotton bollworm Mortality (%) (cotton bollworms; concentration 600 mg/kg): 40%; Bactericidal activity (%) Rhizoctonia cereali (Rhizoctonia cereali): 18.9%; Bactericidal activity (%) Phytophthora capsici (Phytophthora capsici): 15.2%
